Data published in patent US20240226086A1, “LIQUID PHARMACEUTICAL FORMULATIONS OF QUINOLINES” (TaP Pharmaceuticals, AG, priority 2022, published 2024).
Counter-ions that a name gives are not always drawn. Like-named read-outs stand apart in the source and are kept apart here.

Columns and labels:
[1] = cited from earlier work
[2] = HCQ sulfate solubility in liquid glycerol formulations, HPLC assay for HCQ; assay type: physicochemical; conditions: dissolution protocol of Example 1
Method: Liquid HCQ formulations. […] Step 1: 63 g of glycerol were weighed and transferred into a 50 ml beaker with magnetic stir bar and heated to 70° C. while stirred. Step 2: 10 g HCQ sulfate were weighed and slowly added to the 70° C. glycerol of Step 1 with continued stirring and with maintenance of 70° C. until a clear liquid solution was formed. Step 3: 10 g HCQ sulfate was weighed and slowly added to resultant clear liquid solution of Step 3 with continued stirring and with maintenance of 70° C. until a clear liquid solution was formed. Step 4: the resultant clear liquid solution of Step 4 was cooled to room temperature.
HPLC steps. Step 1. […] The chromatogram was recorded and used to identify any peak eluting at the retention time of major peaks. […] The chromatogram was recorded and used to identify the HCQ peak and calculate its signal to noise ratio. […] The chromatogram was recorded and used to identify HCQ and HCQ-n-oxide peaks and the resolution between those peaks was calculated. […] The chromatograms were recorded and used to calculate the average and % RSD for the HCQ peak area responses obtained from the six replicate injections of standard solution. The tailing factor was determined. […] The chromatograms were recorded and used to calculate average peak area responses of the HCQ obtained from the two replicate injections of standard check solution. The similarity factor was calculated. […]

In the case of CCN(CCO)CCCC(C)Nc1ccnc2cc(Cl)ccc12 (centres unmarked) [HCQ, 2-[[4-[(7-Chloro-4-quinolyl)amino]pentyl]ethylamino] ethanol sulfate (1:1)], the “Solubility, Inference as USP” value ([1]; solvent Alcohol) is given as “Practically insoluble or slightly soluble”, the “Solubility, Inference as USP” value ([1]; solvent Chloroform) is given as “Practically insoluble or slightly soluble” and the “Solubility, Inference as USP” value ([1]; solvent Dimethylformamide) is given as “Sparingly soluble (10-33)”. The “Solubility, Inference as USP” value ([1]; solvent Dimethylsulfoxide) was “Insoluble or sparingly soluble”, the “Solubility, Inference as USP” value ([1]; solvent Ethanol) was “Sparingly soluble or insoluble” and the “Solubility, Inference as USP” value ([1]; solvent Ether) was “Practically insoluble or very slightly soluble”. The “Solubility, Inference as USP” value ([1]; solvent Glycerol) was “Very slightly soluble (0.1-1)” and the “HCQ dissolved in glycerol” value [2] was 273 mg/mL.
